Measured values: patent US20240148821A1, “PHARMACEUTICAL USE OF CYCLIC PEPTIDE COMPOUND” (CHUGAI SEIYAKU KABUSHIKI KAISHA, priority 2021, published 2024)
pIC50: −log10 of the molar value. Numbered stars: 1 amine (or outer) side, 2 acyl side, 3 side chain; on linkers, the order of the positions; unused ones are H or OH. Bridge positions count the residues as written; N and C are the ends. Square brackets hold non-standard residues; d marks the D form. Peptide text beside a SMILES is read from it. * marks the point of attachment. hPhe(3-Cl-4-CF3) = N[C@@H](CCc1ccc(C(F)(F)F)c(Cl)c1)C(=O)O; NMeAbu(4,4,4-F3) = CN[C@@H](CC(F)(F)F)C(=O)O; NMePhe(4-Me) = CN[C@@H](Cc1ccc(C)cc1)C(=O)O; NMedβ3hAla = C[C@H](CC(=O)[*:2])N(C)[*:1]; NMeAla(cPent) = CN[C@@H](CC1CCCC1)C(=O)O; NMeNva(5,5-F2) = CN[C@@H](CCC(F)F)C(=O)O; NMeGly(cPent) = CN[C@H](C(=O)O)C1CCCC1; NMe3Pal = CN[C@@H](Cc1cccnc1)C(=O)O; NMeCha = CN[C@@H](CC1CCCCC1)C(=O)O; Pro(4-oxo) = O=C1CN[C@H](C(=O)O)C1; NMeChg = CN[C@H](C(=O)O)C1CCCCC1; NMeF = CN[C@@H](Cc1ccccc1)C(=O)O; NMeI = CC[C@H](C)[C@H](NC)C(=O)O; NMeD = CN[C@@H](CC(=O)O)C(=O)O; NMeL = CN[C@@H](CC(C)C)C(=O)O; NMeNle = CCCC[C@H](NC)C(=O)O; NMeV = CN[C@H](C(=O)O)C(C)C; d(β3hA) = C[C@@H](N)CC(=O)O; Morpholide = C1CN(*)CCO1; NMeA = CN[C@@H](C)C(=O)O; Piperidide = C1CCN(*)CC1; Pyrrolidide = C1CCN(*)C1; dNMeA = CN[C@H](C)C(=O)O; Ac5c = NC1(C(=O)O)CCCC1; Aze = O=C(O)[C@@H]1CCN1; Sar = CNCC(=O)O

These compounds were tested on Human pancreatic cancer cell line AsPC-1 (G12D mutation Kras) (assay: AsPC-1 cell growth inhibition (AsPC-1 CGI)). Conditions: read-out: AsPC-1 cell growth inhibition, 50% growth inhibitory concentration (IC50 value); 96 hours, CellTiter-Glo, values classified in ranges.
Type: cell-based
Description: Test compounds were serially dilated with dimethyl sulfoxide, and 200 nL was then dispensed to a U-bottom 96-well plate using Labcyte Echo. […] The cell suspension was dispensed to a. plate containing a test compound at 100 μL per well and incubated at 37° C. in a 5% carbon dioxide gas incubator. 96 hours later, 80 μL of CellTiter-Glo (Promega) was added to each well and fluorescence was measured.

Structure (SMILES) | pIC50
CC[C@H](C)[C@@H]1NC(=O)[C@H](C)N(C)C(=O)C[C@@H](C)NC(=O)[C@H](C(C)C)N(C)C(=O)C2(CCCC2)NC(=O)[C@@H]2CCCN2C(=O)[C@H](CCc2ccc(C(F)(F)F)c(Cl)c2)NC(=O)CN(C)C(=O)[C@H](Cc2ccccc2)N(C)C(=O)[C@@H]2CCCN2C(=O)CN(C)C1=O [Compound 1778] (cyclo([Ac5c][NMeV][d(β3hA)][NMeA]I[Sar]P[NMeF][Sar][hPhe(3-Cl-4-CF3)]P)) | < 6.30
CC[C@H](C)[C@@H]1NC(=O)[C@H](CC(C)C)N(C)C(=O)C[C@@H](C(=O)N(C)C)N(C)C(=O)[C@H](C2CCCC2)N(C)C(=O)C2(CCCC2)NC(=O)[C@@H]2CCCN2C(=O)[C@H](CCc2ccc(C(F)(F)F)c(Cl)c2)NC(=O)CN(C)C(=O)[C@H](Cc2ccc(C)cc2)N(C)C(=O)CN(C)C(=O)CN(C)C1=O [Compound 1779] ([NMeL]I[Sar][Sar][NMePhe(4-Me)][Sar][hPhe(3-Cl-4-CF3)]P[Ac5c][NMeGly(cPent)][NMeD]-NMe2; lactam N-11) | ≥ 7.70
CC[C@H](C)[C@@H]1NC(=O)[C@H](CC(C)C)N(C)C(=O)C[C@@H](C(=O)N2CCCCC2)N(C)C(=O)[C@H](CCC(F)F)N(C)C(=O)C2(CCCC2)NC(=O)[C@@H]2CCCN2C(=O)[C@H](CCc2ccc(C(F)(F)F)c(Cl)c2)NC(=O)CN(C)C(=O)[C@H](CC2CCCCC2)N(C)C(=O)CN(C)C(=O)CN(C)C1=O [Compound 1782] ([NMeL]I[Sar][Sar][NMeCha][Sar][hPhe(3-Cl-4-CF3)]P[Ac5c][NMeNva(5,5-F2)][NMeD]-Piperidide; lactam N-11) | < 6.30
CC[C@H](C)[C@@H]1NC(=O)[C@H](C)N(C)C(=O)C[C@@H](C(=O)N2CCOCC2)N(C)C(=O)[C@H](C(C)C)N(C)C(=O)C2(CCCC2)NC(=O)[C@@H]2CCCN2C(=O)[C@H](CCc2ccc(C(F)(F)F)c(Cl)c2)NC(=O)[C@@H](C)N(C)C(=O)[C@H](CC2CCCCC2)N(C)C(=O)[C@@H]2CCCN2C(=O)CN(C)C1=O [Compound 1788] ([NMeA]I[Sar]P[NMeCha][dNMeA][hPhe(3-Cl-4-CF3)]P[Ac5c][NMeV][NMeD]-Morpholide; lactam N-11) | < 6.30
CC[C@H](C)[C@@H]1NC(=O)[C@H](CC(C)C)N(C)C(=O)C[C@@H](C)N(C)C(=O)[C@H]([C@@H](C)CC)N(C)C(=O)C2(CCCC2)NC(=O)[C@@H]2CCCN2C(=O)[C@H](CCc2ccc(C(F)(F)F)c(Cl)c2)NC(=O)CN(C)C(=O)[C@H](Cc2ccc(C)cc2)N(C)C(=O)CN(C)C(=O)CN(C)C1=O [Compound 1792] (cyclo([Ac5c][NMeI][NMedβ3hAla][NMeL]I[Sar][Sar][NMePhe(4-Me)][Sar][hPhe(3-Cl-4-CF3)]P)) | ≥ 7.70
CC(C)C[C@H]1C(=O)N[C@@H](CO)C(=O)N(C)CC(=O)N(C)CC(=O)N(C)[C@@H](CC2CCCCC2)C(=O)N(C)CC(=O)N[C@@H](CCc2ccc(C(F)(F)F)c(Cl)c2)C(=O)N2CCC[C@H]2C(=O)NC2(CCCC2)C(=O)N(C)[C@@H](C2CCCCC2)C(=O)N(C)[C@H](C(=O)N2CCCCC2)CC(=O)N1C [Compound 1799] ([NMeL]S[Sar][Sar][NMeCha][Sar][hPhe(3-Cl-4-CF3)]P[Ac5c][NMeChg][NMeD]-Piperidide; lactam N-11) | < 6.30
CC(C)C[C@H]1C(=O)N[C@@H](C)C(=O)N(C)CC(=O)N(C)CC(=O)N(C)[C@@H](CC2CCCCC2)C(=O)N(C)CC(=O)N[C@@H](CCc2ccc(C(F)(F)F)c(Cl)c2)C(=O)N2CCC[C@H]2C(=O)NC2(CCCC2)C(=O)N(C)[C@@H](C2CCCCC2)C(=O)N(C)[C@H](C(=O)N2CCCCC2)CC(=O)N1C [Compound 1802] ([NMeL]A[Sar][Sar][NMeCha][Sar][hPhe(3-Cl-4-CF3)]P[Ac5c][NMeChg][NMeD]-Piperidide; lactam N-11) | < 6.30
CC[C@H](C)[C@@H]1NC(=O)[C@H](C)N(C)C(=O)C[C@@H](C(=O)N2CCCCC2)N(C)C(=O)[C@H](C(C)C)N(C)C(=O)C2(CCCC2)NC(=O)[C@@H]2CCCN2C(=O)[C@H](CCc2ccc(C(F)(F)F)c(Cl)c2)NC(=O)[C@@H](C)N(C)C(=O)[C@H](Cc2ccccc2)N(C)C(=O)[C@@H]2CCCN2C(=O)CN(C)C1=O [Compound 1806] ([NMeA]I[Sar]P[NMeF][dNMeA][hPhe(3-Cl-4-CF3)]P[Ac5c][NMeV][NMeD]-Piperidide; lactam N-11) | < 6.30
CC[C@H](C)[C@@H]1NC(=O)[C@H](C)N(C)C(=O)C[C@@H](C)N(C)C(=O)[C@H](C2CCCCC2)N(C)C(=O)C2(CCCC2)NC(=O)[C@@H]2CCCN2C(=O)[C@H](CCc2ccc(C(F)(F)F)c(Cl)c2)NC(=O)CN(C)C(=O)[C@H](CC2CCCCC2)N(C)C(=O)CN(C)C(=O)CN(C)C1=O [Compound 1808] (cyclo([Ac5c][NMeChg][NMedβ3hAla][NMeA]I[Sar][Sar][NMeCha][Sar][hPhe(3-Cl-4-CF3)]P)) | < 6.30
CC[C@H](C)[C@@H]1NC(=O)[C@H](C)N(C)C(=O)C[C@@H](C(=O)N2CCCC2)N(C)C(=O)[C@H](C2CCCCC2)N(C)C(=O)C2(CCCC2)NC(=O)[C@H](Cc2cccnc2)N(C)C(=O)[C@H](CCc2ccc(C(F)(F)F)c(Cl)c2)NC(=O)CN(C)C(=O)[C@H](CC2CCCCC2)N(C)C(=O)[C@@H]2CCN2C(=O)CN(C)C1=O [Compound 1810] ([NMeA]I[Sar][Aze][NMeCha][Sar][hPhe(3-Cl-4-CF3)][NMe3Pal][Ac5c][NMeChg][NMeD]-Pyrrolidide; lactam N-11) | < 6.30
CC[C@H](C)[C@@H]1NC(=O)[C@H](CC(C)C)N(C)C(=O)C[C@@H](C)N(C)C(=O)[C@H](C2CCCCC2)N(C)C(=O)C2(CCCC2)NC(=O)[C@@H]2CCCN2C(=O)[C@H](CCc2ccc(C(F)(F)F)c(Cl)c2)NC(=O)CN(C)C(=O)[C@H](CC2CCCCC2)N(C)C(=O)[C@@H]2CCN2C(=O)[C@H](C)N(C)C1=O [Compound 1813] (cyclo([Ac5c][NMeChg][NMedβ3hAla][NMeL]I[NMeA][Aze][NMeCha][Sar][hPhe(3-Cl-4-CF3)]P)) | < 6.30
CCCC[C@H]1C(=O)N(C)[C@H](C(=O)N2CCCCC2)CC(=O)N(C)[C@@H](CC(C)C)C(=O)N[C@@H]([C@@H](C)CC)C(=O)N(C)CC(=O)N(C)CC(=O)N(C)[C@@H](CC2CCCCC2)C(=O)N(C)CC(=O)N[C@@H](CCc2ccc(C(F)(F)F)c(Cl)c2)C(=O)N2CCC[C@H]2C(=O)NC2(CCCC2)C(=O)N1C [Compound 1815] ([NMeL]I[Sar][Sar][NMeCha][Sar][hPhe(3-Cl-4-CF3)]P[Ac5c][NMeNle][NMeD]-Piperidide; lactam N-11) | < 6.30
CC[C@H](C)[C@@H]1NC(=O)[C@H](CC(C)C)N(C)C(=O)C[C@@H](C(=O)N2CCCC2)N(C)C(=O)[C@H](C2CCCC2)N(C)C(=O)C2(CCCC2)NC(=O)[C@@H]2CCCN2C(=O)[C@H](CCc2ccc(C(F)(F)F)c(Cl)c2)NC(=O)CN(C)C(=O)[C@H](CC2CCCCC2)N(C)C(=O)CN(C)C(=O)CN(C)C1=O [Compound 1818] ([NMeL]I[Sar][Sar][NMeCha][Sar][hPhe(3-Cl-4-CF3)]P[Ac5c][NMeGly(cPent)][NMeD]-Pyrrolidide; lactam N-11) | ≥ 7.70
CC[C@H](C)[C@@H]1NC(=O)[C@H](CC(C)C)N(C)C(=O)C[C@@H](C(=O)N2CCCCC2)N(C)C(=O)[C@H](C(C)C)N(C)C(=O)C2(CCCC2)NC(=O)[C@@H]2CC(=O)CN2C(=O)[C@H](CCc2ccc(C(F)(F)F)c(Cl)c2)NC(=O)CN(C)C(=O)[C@H](CC2CCCCC2)N(C)C(=O)[C@@H]2CCN2C(=O)[C@H](C)N(C)C1=O [Compound 1819] ([NMeL]I[NMeA][Aze][NMeCha][Sar][hPhe(3-Cl-4-CF3)][Pro(4-oxo)][Ac5c][NMeV][NMeD]-Piperidide; lactam N-11) | < 6.30
CC[C@H](C)[C@@H]1NC(=O)[C@H](C)N(C)C(=O)C[C@@H](C(=O)N2CCCC2)N(C)C(=O)[C@H](C2CCCCC2)N(C)C(=O)C2(CCCC2)NC(=O)[C@H](Cc2cccnc2)N(C)C(=O)[C@H](CCc2ccc(C(F)(F)F)c(Cl)c2)NC(=O)CN(C)C(=O)[C@H](CC2CCCCC2)N(C)C(=O)CN(C)C(=O)CN(C)C1=O [Compound 1834] ([NMeA]I[Sar][Sar][NMeCha][Sar][hPhe(3-Cl-4-CF3)][NMe3Pal][Ac5c][NMeChg][NMeD]-Pyrrolidide; lactam N-11) | < 6.30
CC[C@H](C)[C@@H]1NC(=O)[C@H](CC(C)C)N(C)C(=O)C[C@@H](C(=O)N(C)C)N(C)C(=O)[C@H]([C@@H](C)CC)N(C)C(=O)C2(CCCC2)NC(=O)[C@@H]2CCCN2C(=O)[C@H](CCc2ccc(C(F)(F)F)c(Cl)c2)NC(=O)CN(C)C(=O)[C@H](Cc2ccc(C)cc2)N(C)C(=O)CN(C)C(=O)CN(C)C1=O [Compound 1836] ([NMeL]I[Sar][Sar][NMePhe(4-Me)][Sar][hPhe(3-Cl-4-CF3)]P[Ac5c][NMeI][NMeD]-NMe2; lactam N-11) | ≥ 7.70
CC[C@H](C)[C@@H]1NC(=O)[C@H](CC(C)C)N(C)C(=O)C[C@@H](C(=O)N2CCCCC2)N(C)C(=O)[C@H](C2CCCCC2)N(C)C(=O)C2(CCCC2)NC(=O)[C@@H]2CCCN2C(=O)[C@H](CCc2ccc(C(F)(F)F)c(Cl)c2)NC(=O)CN(C)C(=O)[C@H](CC(F)(F)F)N(C)C(=O)CN(C)C(=O)CN(C)C1=O [Compound 1841] ([NMeL]I[Sar][Sar][NMeAbu(4,4,4-F3)][Sar][hPhe(3-Cl-4-CF3)]P[Ac5c][NMeChg][NMeD]-Piperidide; lactam N-11) | < 6.30
CC[C@H](C)[C@@H]1NC(=O)[C@H](C)N(C)C(=O)C[C@@H](C(=O)N2CCCCC2)N(C)C(=O)[C@H](C(C)C)N(C)C(=O)C2(CCCC2)NC(=O)[C@@H]2CCCN2C(=O)[C@H](CCc2ccc(C(F)(F)F)c(Cl)c2)NC(=O)[C@@H](C)N(C)C(=O)[C@H](Cc2ccccc2)N(C)C(=O)CN(C)C(=O)CN(C)C1=O [Compound 1844] ([NMeA]I[Sar][Sar][NMeF][dNMeA][hPhe(3-Cl-4-CF3)]P[Ac5c][NMeV][NMeD]-Piperidide; lactam N-11) | < 6.30
CC[C@H](C)[C@@H]1NC(=O)[C@H](CC(C)C)N(C)C(=O)C[C@@H](C(=O)N2CCOCC2)N(C)C(=O)[C@H](C(C)C)N(C)C(=O)C2(CCCC2)NC(=O)[C@@H]2CCCN2C(=O)[C@H](CCc2ccc(C(F)(F)F)c(Cl)c2)NC(=O)CN(C)C(=O)[C@H](CC2CCCC2)N(C)C(=O)CN(C)C(=O)CN(C)C1=O [Compound 1848] ([NMeL]I[Sar][Sar][NMeAla(cPent)][Sar][hPhe(3-Cl-4-CF3)]P[Ac5c][NMeV][NMeD]-Morpholide; lactam N-11) | < 6.30
